Data on four compounds can be found in patent US20230296590A1, “Devices and Methods to Induce Adult type Maturation of Human Pluripotent Stem Cell Derived Cardiomyocytes” (priority 2022, published 2023).

“Also recorded” adds a separate entry of the source. Bridge positions count the residues as written; N and C are the ends. Ends that are not written are not given here.

Common to all, as to format: cell-based, human
Data set [1] relates to hiPSC-CMs. In words: Acute pathological hypertrophy model (endothelin-1 treatment), functional evaluation. The note with it: for effect on FAO / effect on OxPhos / effect on glycolysis: 10 nM, 48 hrs. The protocol: Human iPSC culture and cardiac differentiation. Human iPSCs (WTC-11) were cultured using chemically defined medium and published protocols (Burridge et al., 2014; Tohyama et al., 2013). Undifferentiated iPSCs were seeded (125,000 cells per cm^2) on Geltrex (ThermoScientific)-coated six-well plates and maintained in E8 medium (Life Technologies) for 4 days when they reached 80-85% confluence. Medium was then changed to cardiac differentiation medium (CDM), consisting of RPMI 1640 medium (11875, ThermoScientific), 500 μg/ml O. sativa—derived recombinant human albumin (A9731, Sigma-Aldrich), and 220 μg/ml L-ascorbic acid (A4544-Sigma-Aldrich), containing B27 supplement-insulin free (A1895601 ThermoScientific) to initiate differentiation. On d0-d2, medium was supplemented with 6 μM CHIR99021 (LC Laboratories) for induction of mesoderm. On d4-d5, medium was supplemented with 10 uM IWR (Selleck Chemicals) for cardiac differentiation. Contracting cells are typically noted, starting on d7-d8. To purify cardiac myocytes, a variant of RPMI 1640 medium without D-glucose (11879, Life Technologies) was supplemented with 4 mM sodium lactate (L4263, Sigma-Aldrich) for 2 days on day 10 of differentiation followed by culture in cardiac media, containing B-27™ Supplement with insulin (17504001, ThermoScientific) in CDM medium (Tohyama et al., 2013). Cells were dissociated on d13-d14 using TrypLE (ThermoScientific) and plated/cultured on either flat/anisotropic cell culture surfaces for 15-16 further days (d30 for flat and CMM) or 45 days (d60 for flat culture surface) in cardiac culture media. Cardiac culture media was used in all the conditions from day 13-d14 onwards, and it was composed of RPMI-1640, lipid-enhanced Cellastium S, 220 μg/ml L-ascorbic acid and B27 with insulin. Control flat tissue-culture surfaces were coated with fibronectin at a concentration of 4 μg/cm^2. For hypertrophy induction, day 30 differentiated cells were treated with 10 nM endothelin 1 (E7764 Millipore Sigma) for 48 hrs in cardiac culture media.
Mitochondrial respiration. Cellular energetics was monitored using the Seahorse Bioscience XF instrument in intact cells (non-permeabilized cells) and permeabilized cells(Afzal et al., 2017; Salabei et al., 2014). Intact cell respiration was monitored to evaluate the contribution of oxidative phosphorylation versus glycolysis, whereas permeabilized cell respiration was used to monitor electron transport chain (ETC) complex function/activity using ETC complex specific substrates and fatty acid oxidation.
For permeabilized cell respiration, iPSC-CMs were permeabilized using […] of Seahorse XF Plasma Membrane Permeabilizer (Part #102504-100). In permeabilized cells only OCR is measured. Mitochondria respiration were assayed using Buffer (pH 7.2) containing 137 mM KCl, 2 mM KH2PO4, 0.5 mM EGTA, 2.4 mM MgCl2, 20 mM HEPES with 0.2% fatty acid-free BSA (Sigma). Respiration rates were normalized to the protein concentration using BCA assay. Complex I respiration were evaluated by 5 mM glutamate and 5 mM malate (G/M) to evaluate State 4 respiration; 4 mM ADP was then injected to evaluate State 3 respiration. Maximal respiratory capacity (uncoupled mitochondria) was measured by injecting […]. Coupling of Electron Transport Chain respiration to ATP synthesis were evaluated using the ATP synthase inhibitor oligomycin (4 uM). Complex II respiration were measured using 5 mM succinate. Fatty acid oxidation was measured by injecting 200 uM of Palmitoyl-1-carnitine chloride/2.5 mM Malate and assessing the increase in OCR.
Florescence from cells (transduced with probes) was collected separately at a […] using an electron-multiplying charge-coupled device (EMCCD) camera using Andor Revolution X1 Spinning Disk confocal inverted microscope. Data was acquired with 2×2 pixel binning. ROS (roGFP2-Grx) probes were excited with 405 nm and 488 nm laser and emission was detected using bandpass filter of 500 nm-554 nm. […]

Data set [2] has as its system hiPSC-CMs. Kind of data set: Optical recording of action potential with genetically encoded voltage indicators (Varnam, Arclight). The note with it: cells on CMM. The text has this: Cyto-calcium, Action potential and redox handling. Cytoplasmic calcium and redox status of iPSC-CMs using spinning disk confocal microscope (Olympus/Andor Revolution XD) was monitored. 3rd gen. lentiviral probes using ViraPower™ Lentiviral mix was generated and transduced iPSC-CMs using MOI 5 (multiplicity of infection) that generated good signal to noise ratio. Cytoplasmic targeted roGFP-Grx1 probes(Gutscher et al., 2008), Calcium probe (genetically encoded Ca^2+ indicators (GECIs)-GCamP6f(Hubbi et al., 2013), Arclight(Jin et al., 2012) and Varnam(Kannan et al., 2018) were obtained from Addgene and transferred to pENTR™/SD/D-TOPO® vector using PCR. The vector was sequence verified and then transferred to pLEX_307 vector (Addgene plasmid #41392) that contains the EFlα promoter using the LR reaction. […] The virus was generated for each probe in HEK293-FT cells using an optimized mix of three packaging plasmids (pLP1, pLP2, and pLP/VSVG). The virus was concentrated using PEG-it™ Virus Precipitation Solution (SBI biosciences) that also removes HEK293-FT cell medium.
To monitor the florescence signal from cells transduced with probes, cells were plated at a density of 200,000 per cm^2 on cultured surfaces for at least 10-15 days prior to imaging, to achieve cell-cell coupling. […]
Florescence from cells (transduced with probes) was collected separately at a […] using an electron-multiplying charge-coupled device (EMCCD) camera using Andor Revolution X1 Spinning Disk confocal inverted microscope. […] ROS (roGFP2-Grx) probes were excited with 405 nm and 488 nm laser and emission was detected using bandpass filter of 500 nm-554 nm. […] Recovery of glutathione pool was monitored for 180-240 sec before the utilization of diamide (oxidized) and DTT (reduced) to obtain min and max signal. […] Cells transduced with cytoplasmic GCamp6f were excited at 488 nm and emission was detected using bandpass filter of 500 nm-554 nm. […] The data was analyzed using image J (NIH).

The subject of data set [3] is hiPSC-CMs. Kind of data set: Sarcoplasmic reticulum calcium content, caffeine-induced Ca2+ release, Fura2 imaging. As to conditions: 10 mM. The protocol:
To investigate calcium content of the sarcoplasmic reticulum (SR), Fura2 (ThermoFisher 3 uM) loaded cells were perfused with caffeine. Cells were initially perfused with modified Tyrode solution at 37C (pH 7.4) containing (in mM) 130 NaCl, 5 KCl, 1 MgCl2, 1.2 CaCl2, 20 Na-HEPES, 10 glucose, 1 pyruvate, 0.1% fatty acid free-BSA. After pacing the cells at 0.5 Hz for 30-40 sec, cells were perfused with the modified Tyrode buffer containing caffeine (10 mM). Images were analyzed using image J (NIH). Line plots (trace plots) were generated for both action potential and calcium transients by calculating average intensity (and standard deviation) from 3 biological batches with >100 cells for each timepoint and plotting it against the time (using R).

As for “endothelin 1 (CSCSSLMDKECVYFCHLDIIW; disulfide 1-15, 3-11; ends not checked; UniProt P05305 53-73, looked up) [ET-1, pathological hypertrophy stimulus (E7764 Millipore Sigma)]”, in the data set on hiPSC-CMs [1] (both d30 and CMM), the “effect on action potential duration” value is on record as “increase” and the “effect on beating frequency” value was “decrease”. For the same compound, in the data set with hiPSC-CMs [1] (cells on CMM), the “effect on Ca2+ peak amplitude” value is on record as “no significant effect”, the “effect on oxidative stress handling (roGFP2 after H2O2)” value was “unperturbed”, the “effect on FAO” value was “reduction” and the “effect on OxPhos” value is reported as “no effect”. For the same compound, in the data set on hiPSC-CMs [1] (cells on CMM), the effect on glycolysis result is given as “slight increase”. Besides, in the data set on hiPSC-CMs [1] (cells on CMM, acute treatment), the “effect on respiratory control ratio (state 3/state 4)” value is reported as “not affected”. Further, in the data set on hiPSC-CMs [1] (d30 cells), the “effect on Ca2+ peak amplitude” value is recorded as “increase in peak amplitude”, the “effect on oxidative stress handling (roGFP2 after H2O2)” value is recorded as “reduced oxidative stress handling”, the “effect on FAO” value was “increase” and the “effect on OxPhos” value is recorded as “significantly increased”. The effect on glycolysis result in the data set with hiPSC-CMs [1] (d30 cells) is listed as “significantly increased”.
Regarding `CN(CCOc1ccc(NS(C)(=O)=O)cc1)CCc1ccc(NS(C)(=O)=O)cc1` [Dofetilide], the “tolerance of cells to 10 nM dose” value with hiPSC-CMs [2] (10 nM) was “fail to tolerate”. The “effect on action potential” value in the data set on hiPSC-CMs [2] (Dofetilide IKr 3 nM) was “AP prolongation and early after depolarization (EAD); also recorded: appearance of EAD and APD prolongation”.
For `CCN(CC)CC(=O)Nc1c(C)cccc1C` [Lidocaine], the “reduction of beat frequency” value in the data set on hiPSC-CMs [2] (Lidocaine INa 100 um, 2 biological batches, n=30) is on record as approximately 40%.
`Cn1c(=O)c2c(ncn2C)n(C)c1=O` [caffeine]: the “calcium amplitude following caffeine exposure (SR load)” value with hiPSC-CMs [3] (cells matured on CMM) is reported as “significant increase in amplitude”. Moreover, in the data set on hiPSC-CMs [3] (d30 cells), the “calcium release from SR following caffeine exposure” value is “failed to demonstrate the calcium release”.
